{
  "source": "patent US20120225889A1",
  "about": "“USE OF MACROCYCLIC LACTONE DERIVATIVES FOR THE TREATMENT OF INFLAMMATORY DISORDERS” (PIRAMAL LIFE SCIENCES LIMITED, priority 2010, published 2012)",
  "key": {"[1]": {"tested_on": "C57BL mice with DSS induced colitis", "assay": "DSS induced murine model of acute colitis", "format": "in vivo", "procedure": "The assay was designed as in references, Laboratory Investigation, 80, 1541, (2000), and Faseb Journal, 19:792, (2005), the disclosure of which is incorporated by reference for the teaching of the assay.\nNormal, in-house bred female C57BL mice weighing […], 8-10 weeks old, were used. The animals were housed in individually ventilated cages, three per cage, throughout the experimental period.\nExperimental colitis was induced in mice by replacing drinking water with 3% (w/v) DSS (molecular weight 36,000-50,000, MP Biomedicals Inc., USA) solution. This solution was prepared in water, freshly every alternate day and was made available to the experimental animals ad libitum, from day 0 to day 10. A batch of six naïve animals received water instead of DSS during this period.\nThe animals were weighed every day and the record of body weights was maintained. The suspension of test compound (was prepared at a concentration of 0.05 mg/mL, in 0.5% (w/v) CMC after mixing with minimum quantity of Tween 80 necessary to wet the compound, and was administered orally, daily once to the animals at a volume of 10 mL/kg (dose=0.5 mg/kg). This treatment was initiated on day 6 and continued up to day 10. During this period, DSS control animals and naïve animals received CMC (mixed in the same proportion with 100 μL of Tween 80) at a dose of 10 mL/kg, daily once.\nOn day 11, the animals were sacrificed, blood was collected in heparinized tubes and the following parameters were studied; • 1. Rectal bleeding/blood in faeces • 2. Fecal consistency • 3. Bleeding in colon • 4. Colon weight • 5. Colon length • 6. Change in body weight on day 11 from that of day 0 • 7. Blood hemoglobin concentration\nThe data are represented in the following tables (Table 8, Table 9 and Table 10) as quantifiable parameters, descriptive parameters and actual scores. The descriptive parameters are represented by DAI. DAI is a research tool used to quantify the symptoms of the colitic animals. DAI is used in order to define response of the treatment or remission of the disease. In order to achieve this, various factors are studied. […] DAI is the sum of the scores of all factors.\nOn the last day of compound treatment (compound of example 7, 0.5 mg/kg, p.o., […]) the animals were euthanized humanely, blood samples were collected and the colon was excised. Anterior part of the colon was washed with normal saline to remove fecal material and then fixed in 10% NBF (Neutral buffered formalin). After 10 days of fixation the colon specimens were trimmed and processed overnight using automated tissue processor. Following day the specimens were blocked in paraffin and exposed to cold shock overnight at −18° C. Sections (5μ) were made from cross section of the colonic lumen and stained with routine Hematoxyllin (Sigma, USA) & Eosin (Loba Chemie, India) and mounted permanently. Slides were dried for 24 h and then graded histologically. The results were expressed as histological scores. Histological analysis was based on various parameters like presence of inflammatory cells, erosions, crypt destruction, edema and overall architectural changes graded on a score of 0 to 3, wherein 0 corresponds to absence, 1 corresponds to changes in 25% of the circumference of the colonic lumen, 2 corresponds to up to 50% and 3 corresponds to more than 50% of colonic circumference getting affected. All the scores were summed up to arrive to a total histological score for each section. Two random sections were graded and mean was calculated."}, "[2]": {"tested_on": "IFN-γ", "assay": "Concanavalin-A-induced IFN-γ production from hPBMC", "format": "cell-based", "details": "Homo sapiens; Con-A-induced production from hPBMCs, 18 h", "procedure": "Peripheral blood mononuclear cells (hPBMC) were harvested using Ficoll-Hypaque density gradient centrifugation (1.077 g/mL; Sigma Aldrich). hPBMCs were resuspended in RPMI 1640 culture medium (Gibco BRL, Pasley, UK) containing 10% FCS, 100 U/mL penicillin (Sigma Chemical Co. St Louis, Mo.) and […] streptomycin (Sigma Chemical Co. St Louis, Mo.) at 1×10^6 cells/mL. 1×10^5 hPBMCs/well were pre-treated with test compound or 0.5% DMSO (carrier control) for 30 min at 37° C. Subsequently, these cells were stimulated with 1 μg/mL concanavalin A (Sigma Chemical Co., St. Louis, Mo.). Following 18 h incubation at 37° C., supernatants were collected and stored at −70° C. until assayed for human IFN-γ by ELISA as described by the manufacturer (OptiEIA ELISA sets, BD BioSciences). In each experiment, cyclosporin (1 μM) was used as a positive control for inhibiting induced IFN-γ production."}, "[3]": {"tested_on": "DBA/1J mice with collagen induced arthritis", "assay": "Arthritic mice: administration by osmotic pumps", "format": "in vivo", "details": "sub-cutaneous osmotic pumps, 240 μg/mouse/24 h, 26 days", "procedure": "The experiment was performed in DBA/1J mice, in which arthritis was developed by injection of collagen emulsion, as described in Example 26.\nThe animals were divided into two groups, viz. a control group and a test compound treated group, having 6 animals each. The clear solution of test compound was prepared in 100% dimethyl sulfoxide (DMSO) and then DMSO concentration was brought down to 25% by addition of appropriate quantities of ethanol and polyethylene glycol 400 (PEG 400), so that the proportion of each solvent in a final solution v/v was 25:15:60::DMSO:EtOH:PEG-400. By this method absolutely clear solution of the compound having a final concentration of 40 mg/mL was obtained. This solution was filtered through 0.2μ filter and was filled in osmotic pumps (Alzet micro-osmotic pump model 1002). The delivery rate of this model of pump is 0.25 μL per hour and it remains functional for 14 days.\nThese pumps were then implanted sub-cutaneously in the animals of the test compound treated group (240 μg/mouse/24 h). The pumps filled with blank solvent were implanted sub-cutaneously in the animals of control group. Thereafter, their paws were scored for arthritic indices, in addition to measurement of thickness, daily once. After 14 days, the pumps were replaced with freshly filled pumps and the experiment was continued for next 12 days (total 26 days)."}, "[4]": {"details": "day 11, DSS mice, 0.5 mg/kg orally daily once, day 6 to day 10"}, "[5]": {"details": "score 0-3 (Table 9), DSS mice, 0.5 mg/kg orally daily once, day 6 to day 10"}},
  "data": [
    {"smiles": "C/C=C/C(O)C(C)/C=C/C(=N\\O)C(C)C(O)C(C)C1OC(=O)/C(OC)=C/C(C)=C/C(C)C(O)C(CC)C(O)C(C)C/C(C)=C/C=C/C1OC", "note": "(centres unmarked) [Compound of example 7, (3Z,5E,13E,15E)-18-((5Z,6E,10E)-3,9-Dihydroxy-5-(hydroxymino)-4,8-dimethyldodeca-6,10-dien-2-yl)-9-ethyl-8,10-dihydroxy-3,17-dimethoxy-5,7,11,13-tetramethyl oxacyclooctadeca-3,5,13,15-tetraen-2-one]", "values": [
      {"measurement": "Group mean histological score (colon)", "setting": "[1]; 0.5 mg/kg, p.o., b.i.d, DSS control 7.50+0.96", "result": "5.33+0.99"},
      {"measurement": "histological damage (colon)", "setting": "[1]; DSS induced colitic C57BL mice", "result": "confer protection against histological damage"},
      {"measurement": "Hbg %", "setting": "[1]; blood hemoglobin, day 11, DSS mice, 0.5 mg/kg orally daily once, day 6 to day 10", "result": "10.77 ± 0.48", "unit": "g %"},
      {"measurement": "Colon length", "setting": "[1]; [4]", "result": "7.33 ± 0.30"},
      {"measurement": "Colon weight mg", "setting": "[1]; [4]", "result": "273.8 ± 8.93", "unit": "mg"},
      {"measurement": "Colon weight mg per cm", "setting": "[1]; [4]", "result": "37.6 ± 1.8", "unit": "mg per cm"},
      {"measurement": "Change in body weight", "setting": "[1]; day 11 from day 0, DSS mice, 0.5 mg/kg orally daily once, day 6 to day 10", "result": "+0.57 ± 0.28"},
      {"measurement": "severity of colitis", "setting": "[1]; orally 0.5 mg/kg, mice with DSS induced colitis", "result": "reduces the severity of colitis"},
      {"measurement": "Blood in colon score", "setting": "[1]; [5]", "result": "0.61 ± 0.30"},
      {"measurement": "Fecal consistency score", "setting": "[1]; [5]", "result": "1.0 ± 0.50"},
      {"measurement": "Rectal bleeding score", "setting": "[1]; [5]", "result": "0.18 ± 0.15"},
      {"measurement": "Disease activity index", "setting": "[1]; sum of the scores of all features, DSS mice, 0.5 mg/kg orally daily once, day 6 to day 10", "result": "1.67 ± 0.47"},
      {"measurement": "IC50", "setting": "[2]", "result": 0.2, "unit": "µM"},
      {"measurement": "severity of arthritis (arthritic scores and paw thickness)", "setting": "[3]", "result": "reduces severity of arthritis"}
    ]}
  ]
}
